The results in this text go back to PubChem BioAssay AID1996.

One may read the solubility (kinetic) as the concentration staying in solution when a stock, usually in DMSO, is diluted into the medium.

Values after ≈ are worked out from the molar mass of the structure shown.

For this data set the following is noted: buffer; pH 7.4; 200.0 µM.
In the case of `O=C(COc1ccc(Br)cc1)N1CCc2ccccc2C1`, the kinetic solubility was found to be 20.8 µg/mL (≈ 60.1 µM).
Under `CC1CCCN(CC(=O)c2ccc(Cl)c(Cl)c2)C1` (centres undefined) stands 26 µg/mL (≈ 90.8 µM); under `COc1ccccc1CC(=O)NCCc1c[nH]c2ccccc12`, 44.9 µg/mL (≈ 146 µM).
Under `C/C(=N/O)c1ccc2ccc3ccccc3c2c1` stands 0.6 µg/mL (≈ 2.55 µM).
`CNc1oc(-c2cccs2)nc1S(=O)(=O)c1ccccc1` registered a solubility (kinetic) of 4.2 µg/mL (≈ 13.1 µM).
Turning to `Cc1ccc(C(=O)N2C3=C(CCCC3)C(=O)NC23CCCCC3)cc1`, the solubility (kinetic) worked out at 2.1 µg/mL (≈ 6.2 µM).
`Cc1c(C(=O)OCC(=O)N(C)Cc2ccccc2)oc2ccccc12` had a kinetic solubility of 23.3 µg/mL (≈ 69.1 µM).
`Cc1cc(OCCCn2ccnc2)cc(C(C)C)c1` came in with a solubility (kinetic) of 23.3 µg/mL (≈ 90.2 µM).
Regarding `COc1ccc(-c2cc(C(=O)N3CCCCC3)c3ccccc3n2)cc1`, the kinetic solubility amounted to 33.5 µg/mL (≈ 96.7 µM).
With `CCOc1ccccc1NC(=S)NCCCn1ccnc1`, the solubility (kinetic) was found to be 42.1 µg/mL (≈ 138 µM).
Turning to `CC(OC(=O)C1=COCCO1)C(=O)Nc1ccccc1C#N` (centres undefined), the solubility (kinetic) worked out at 38.8 µg/mL (≈ 128 µM).
`Cc1nn(-c2ccccc2)c(-c2ccccc2[N+](=O)[O-])c1C(=O)O` registered a kinetic solubility above 48.5 µg/mL.
Under `O=C(Nc1ccc(S(=O)(=O)Nc2ncccn2)cc1)C12CC3CC(CC(Cl)(C3)C1)C2` stands above 67 µg/mL; under `CC(C)n1c(/N=C/c2ccccc2O)nc2ccccc21`, 31.4 µg/mL (≈ 112 µM).
Turning to `CC(=O)Nc1ccc(S(=O)(=O)NC2CCCCCC2)cc1`, the kinetic solubility is 35.1 µg/mL (≈ 113 µM).
Under `C=CCn1c(O)c(C=Nc2c(C)n(C)n(-c3ccccc3)c2=O)c(=O)[nH]c1=O` stands above 57.2 µg/mL; under `Cc1ccc(COc2ccc(C)nc2[N+](=O)[O-])cc1`, 1.2 µg/mL (≈ 4.65 µM).
Under `COC(=O)c1sccc1NC(=O)Nc1ccc(C)cc1` stands 10.1 µg/mL (≈ 34.8 µM); under `Cc1ccc(CNc2ncnc3cc(Cl)ccc23)cc1`, 5 µg/mL (≈ 17.6 µM).
Under `CC1(C)CC(NC(=O)c2ccccc2F)CC(C)(C)N1` stands above 41.8 µg/mL; under `COc1ccccc1C1(O)C(=O)Nc2ccccc21` (centres undefined), above 38.3 µg/mL; under `Cc1ccc(-c2ocnc2C(=O)N2CCOCC2)cc1`, above 40.8 µg/mL.
For the compound `c1ccc(Cn2c(NCc3ccccn3)nc3ccccc32)cc1`, the solubility (kinetic) was above 47.2 µg/mL.
Under `C=C(C)C(=O)Nc1cccnc1Oc1ccc(F)cc1` stands above 40.8 µg/mL; under `CC(=O)Oc1ccc(C(=O)Nc2ccc3c(c2)OCCO3)cc1`, 38.9 µg/mL (≈ 124 µM).
Under `Cc1ccc2nc(Nc3ncc4c(n3)CC(C)(C)CC4=O)nc(C)c2c1` stands 10.5 µg/mL (≈ 30.2 µM).
The figure for `COc1ccc(NC(=O)N2CCc3cc(OC)c(OC)cc3C2)cc1` is 9.1 µg/mL (≈ 26.6 µM); for `Cc1c(C(=O)Nc2nccs2)oc2ccc(Br)cc12` it is 2 µg/mL (≈ 5.93 µM).
Turning to `O=C1Nc2ccccc2/C1=C/c1nc2ccccc2c(=O)n1-c1ccc(O)cc1`, the kinetic solubility came out at 1.9 µg/mL (≈ 4.98 µM).
The figure for `Nc1nc(NCc2ccco2)nc(N2CCOCC2)c1[N+](=O)[O-]` is above 48 µg/mL; for `COC(=O)c1ccc(S(=O)(=O)N2CCC(O)CC2)n1C` it is above 45.4 µg/mL; for `CC(NC(=O)c1ccc(Br)o1)C1CCCO1` (centres undefined) it is above 43.2 µg/mL.
The figure for `CC(C)NC(=O)/C(C#N)=C\c1ccc(N(C)C)o1` is above 37.1 µg/mL.
Turning to `CCCNC(=O)C(=O)NCC1CCCN1CC` (centres undefined), the kinetic solubility worked out at 36 µg/mL (≈ 149 µM).
The figure for `N#Cc1c(-c2ccncc2)c2c([nH]c1=O)-c1ccccc1OC2` is 14.9 µg/mL (≈ 49.5 µM).
Under `O=C1CC2(CC(c3ccc(Cl)cc3)=NO2)C(=O)N1c1ccccc1` (centres undefined) stands 48.9 µg/mL (≈ 144 µM); under `NC(=O)c1cc(S(=O)(=O)N2CCc3ccccc3C2)cs1`, 2 µg/mL (≈ 6.2 µM); under `CCC(C)(NC(=O)c1ccc2c(c1)OCO2)C(=O)NC1CCCCC1` (centres undefined), above 52 µg/mL.
Under `COc1ccccc1OCc1ccc(C(=O)NC(C)c2ccccc2)o1` (centres undefined) stands 38.1 µg/mL (≈ 108 µM); under `CC(C)C[C@H](NC(=O)NCc1ccc(F)cc1)C(=O)O`, above 42.3 µg/mL.
In the case of `Cc1ccc(N=Cc2c(O)n(C)c(=O)n(C)c2=O)cc1`, the solubility (kinetic) was determined as 6.1 µg/mL (≈ 22.3 µM).
The compound `CC(C)CCNC(=O)C1CC(=O)N(CCc2ccccc2)C1` (centres undefined) had a solubility (kinetic) above 45.4 µg/mL.
The figure for `CC(C(=O)O)N1C(=O)C2C3c4ccccc4C(c4ccccc43)[C@@H]2C1=O` (some centres undefined) is above 52.1 µg/mL; for `OCc1cc(Br)ccc1OCc1nc2ccccc2s1` it is below 0.8 µg/mL; for `N/C(Cc1nc(-c2ccc(F)cc2)cs1)=N\O` it is 36.4 µg/mL (≈ 145 µM).
Under `CC1CC(C)CN(CC(=O)c2cccs2)C1` (centres undefined) stands 30.8 µg/mL (≈ 130 µM).
The figure for `CSc1ccccc1NC(=O)c1ccc([N+](=O)[O-])cc1` is 15.9 µg/mL (≈ 55.1 µM); for `O=C(NC1CCSc2ccccc21)c1cccc([N+](=O)[O-])c1` (centres undefined) it is 2.4 µg/mL (≈ 7.63 µM); for `COCCc1nnc(NC(=O)C(C)C)s1` it is above 34.4 µg/mL.
As for `O=C(NCCc1ccc(Cl)cc1)C1CCCO1` (centres undefined), the solubility (kinetic) was above 38.1 µg/mL.
In the case of `CCOc1ccc(Cn2c(=O)oc3ccccc32)cc1`, the kinetic solubility was below 0.6 µg/mL.
Consider `Cc1cc(N2CCN(C(=O)c3ccco3)CC2)c2ccccc2n1`, for which the kinetic solubility is 44.7 µg/mL (≈ 139 µM).
Regarding `O=C1NC2(CCCCCC2)C(=O)N1Cc1ccccc1Cl`, the solubility (kinetic) is 6.8 µg/mL (≈ 22.2 µM).
The figure for `CSc1ccc(CNCC(O)c2ccccc2)cc1.Cl` (centres undefined) is above 46.5 µg/mL; for `O=C(NN1C(=O)NC2(CCCCC2)C1=O)c1cccs1` it is above 44 µg/mL.
The figure for `CCOC(=O)NC(=S)Nc1ccc(C(C)(C)C)cc1Br` is 1.6 µg/mL (≈ 4.45 µM); for `N=c1c2c(ncn1CCCO)Oc1cc(O)ccc1C2c1ccccc1` (centres undefined) it is 35.3 µg/mL (≈ 101 µM).
Under `Cc1ccc(S(=O)(=O)N(C)CC(=O)N2CCC(C(N)=O)CC2)cc1` stands above 53 µg/mL; under `O=C(CCC(=O)N1CCc2ccccc2C1)NCCc1ccc(Cl)cc1`, above 55.6 µg/mL; under `CC(C)NC(=O)c1ccc(CN2CCc3ccccc3C2)cc1`, 2.6 µg/mL (≈ 8.43 µM).
In the case of `CC(Sc1ncccn1)C(=O)N1CCc2ccccc21` (centres undefined), the solubility (kinetic) stood at 33.3 µg/mL (≈ 117 µM).
Under `O=[N+]([O-])c1ccc2nc(-c3ccncc3)[nH]c2c1` stands 8 µg/mL (≈ 33.3 µM); under `Cc1cccc(C)c1OCC(O)CN1CCCCC1.Cl` (centres undefined), 43.4 µg/mL; under `O=Cc1cn(Cc2ccc(Br)cc2)c2ccccc12`, below 0.7 µg/mL.
Under `Clc1ccc(C[n+]2cc(-c3ccc(Cl)cc3)n3c2CCC3)cc1.[Cl-]` stands above 57 µg/mL; under `CC(C)CCN1CCN(Cc2nc3ccccc3s2)CC1CCO` (centres undefined), above 52.1 µg/mL.
The figure for `O=C(NCCC1=CCCCC1)c1cc2ccccc2oc1=O` is below 0.6 µg/mL; for `CCCNC(=O)c1cc(-c2ccc3c(c2)OCO3)on1` it is 2.9 µg/mL (≈ 10.6 µM); for `O=C(CCS(=O)(=O)c1ccccc1)NC1CCCC1` it is above 42.2 µg/mL.
As for `CCCCn1c(SCC(=O)Nc2cc(C)on2)nnc1-c1ccncc1`, the kinetic solubility was above 55.9 µg/mL.
`CCOc1ccc(-n2ccnc(SCC(=O)NC3CCCC3)c2=O)cc1` had a kinetic solubility of 32.6 µg/mL (≈ 87.3 µM).
The figure for `CCOC(=O)N1CCC2(CC1)C(C#N)=C(N)OC1=C2C(=O)CCC1` is above 49.7 µg/mL; for `O=C1C2C3C=CC(C3)C2C(=O)N1Nc1ccccc1` (centres undefined) it is above 38.1 µg/mL.
Under `CC(NC(=O)c1cccc(S(=O)(=O)N(C)C)c1)C1CC2CCC1C2` (centres undefined) stands 15.5 µg/mL (≈ 44.2 µM); under `COc1ccc(CCC(=O)NCc2ccccc2Cl)cc1OC`, above 50.1 µg/mL.
The compound `Cc1cccc(C(=O)O/N=C(\N)c2ccc(Cl)cc2)c1` showed a kinetic solubility below 0.3 µg/mL.
The figure for `CCc1cccc(C)c1NC(=O)C1CC(=O)N(C2CCCC2)C1` (centres undefined) is above 47.2 µg/mL.
The figure for `COc1ccc(NC(=O)COC(=O)C2CC2)c(OC)c1` is above 41.9 µg/mL; for `CC(C)[C@H](NC(=O)c1ccccc1)C(=O)OCC(=O)Nc1ncc(Cl)cc1Cl` it is 46 µg/mL (≈ 108 µM); for `CC(=O)c1ccn(S(=O)(=O)c2ccc(Cl)cc2)c1` it is 33.9 µg/mL (≈ 119 µM).
For the compound `O=C(COC(=O)c1cccs1)Nc1ccc(F)c(F)c1`, the kinetic solubility is 24.9 µg/mL (≈ 83.8 µM).
`CC1CCN(C(=O)CCNC(=O)c2ccccc2Cl)CC1` displayed a solubility (kinetic) of 41.1 µg/mL (≈ 133 µM).
The figure for `CCN(CCCl)Cc1ccccc1Br.Cl` is 42.1 µg/mL; for `O=C(CSC(=S)N1CCOCC1)Nc1ncc2c(n1)CCCC2=O` it is 54.7 µg/mL (≈ 149 µM).
Take `O=C(COC(=O)CN1C(=O)c2ccccc2C1=O)Nc1ccccc1`: the kinetic solubility is above 50.7 µg/mL.
The figure for `O=[N+]([O-])c1c(NCCO)cc(N2CCCCCC2)c2nonc12` is 40.5 µg/mL (≈ 126 µM).
`O=C(Oc1ccc(OC(=O)N2CCCCC2)cc1)N1CCCCC1` came in with a solubility (kinetic) of 1.1 µg/mL (≈ 3.31 µM).
The figure for `Cc1cc(S(=O)(=O)N2CCc3ccccc3C2)ccc1F` is below 0.7 µg/mL.
`O=C(Nc1cccc([N+](=O)[O-])c1)C1C2CCCCC21` (centres undefined) returned a solubility (kinetic) of 0.5 µg/mL (≈ 1.92 µM).
Under `CCOC(=O)c1cncc(O)c1` stands above 25.1 µg/mL; under `Cc1cccc(OCC(=O)Nc2ccccc2F)c1`, 13.4 µg/mL (≈ 51.7 µM).
`O=C(COC(=O)c1cc(S(=O)(=O)N2CCOCC2)ccc1F)NCCc1ccc(F)cc1` displayed a kinetic solubility above 70.3 µg/mL.
The figure for `N/C(=N\OC(=O)c1ccc2c(c1)OCO2)c1ccncc1` is above 42.8 µg/mL; for `COc1ccc(NS(=O)(=O)c2cccs2)cn1` it is above 40.5 µg/mL.
The compound `C=CCn1cccc(C(=O)Nc2ccc(N(C)C)cc2)c1=O` returned a kinetic solubility above 44.6 µg/mL.
Under `Cc1ccc(SCC(=O)c2c(C)nc3cc(C)ccn23)cc1` stands 0.7 µg/mL (≈ 2.25 µM); under `CCOC(=O)CNc1ccc(OC(F)(F)F)cc1`, 7.2 µg/mL (≈ 27.4 µM).
Compound `O=C(CN1CCN(Cc2ccccc2)CC1)N/N=C/c1cccnc1` showed a solubility (kinetic) above 50.6 µg/mL.
The figure for `CN(C(=O)CSc1nnc(-c2ccc(Cl)cc2)n1C)C1CCS(=O)(=O)C1` (centres undefined) is above 62.2 µg/mL; for `COc1cccc(CNC(=O)CCSCc2ccccc2F)c1` it is 41.8 µg/mL (≈ 125 µM).
As for `O=C(CNC(=O)c1cccnc1)N/N=C/c1ccc(O)cc1O`, the solubility (kinetic) is above 47.1 µg/mL.
Under `Fc1ccc(NC(=S)NCc2ccccc2)cc1` stands above 39 µg/mL; under `Cn1cccc1C(=O)OCC(=O)Nc1ccc2c(c1)OCCO2`, 4.8 µg/mL (≈ 15.2 µM); under `O=C(Nc1ccnc(-c2cccnc2)n1)c1cccs1`, 2.9 µg/mL (≈ 10.3 µM).
